# Results reported in patent publication US20080139513A1, “TRANSDERMAL DELIVER OF ACTIVE AGENTS” (Novavax, Inc., priority 2006, published 2008).
# Where a name gives a salt, the structure may show the parent alone. Read-outs that look alike come from different tables or passages of the source.
# Assays:
# [1] = cited from earlier work
# women [2] = details: cited from earlier work
# [3] = cited from earlier work; remark: listed apart in the source
# [4] = cited from earlier work; remark: listed apart in the source
# mice [5] = details: cited from earlier work
# rats = details: female rats given 279 mg/kg, 2 years; cited from earlier work
# uterus = details: clinical studies; cited from earlier work
# women [6] = details: women taking the drug, MORE trial; cited from earlier work
# postmenopausal women = details: cited from earlier work
# [7] = cited from earlier work; remark: listed apart in the source
# in vitro = details: human, topical or ocular
# [8] = oral, cited from earlier work
# rat hepatocytes = details: cited from earlier work
# mammalian cell mutation = details: cited from earlier work
# [9] = test system: Chinese hamster ovary cells; details: cited from earlier work
# Chinese hamsters = details: cited from earlier work
# mice [10] = details: cited from earlier work; remark: listed apart in the source
# bacterial mutagenesis = details: with and without metabolic activation; cited from earlier work
molecule,measurement,setting,value
O=C1CC[C@@]2(O)[C@H]3Cc4ccc(O)c5c4[C@@]2(CCN3CC2CC2)[C@H]1O5 [Naltrexone],solubility in water,[1]; water,water soluble
estrogen,VTE rates compared to placebo group,women [2]; estrogen transdermally,no significant difference
same,risk of VTE compared to a placebo group,"women [2]; oral estrogen, 95 percent CI 1.8-6.8",3.5 fold
O=C(c1ccc(OCCN2CCCCC2)cc1)c1c(-c2ccc(O)cc2)sc2cc(O)ccc12 [Raloxifene],plasma elimination half-life,[3]; after oral dosing,27.7 h
same,clearance rate,[3]; following intravenous administration,approximating hepatic blood flow
same,water solubility,[1]; H2O,0.25 µg/mL
same,log P,[4],5.749
same,incidence of ovarian tumors,"mice [5]; female mice given 9 to 242 mg/kg, 21 months",increased incidence
same,incidence of prostatic leiomyoblastoma,mice [5]; male mice given 210 mg/kg,increased incidence
same,"incidence of testicular interstitial cell tumors, prostatic adenomas, and adenocarcinomas",mice [5]; male mice given 41 or 210 mg/kg,increased incidence
same,incidence in ovarian tumors of granulosa/theca cell origin,rats,increased incidence
same,uterotrophic activity,uterus,does not have uterotrophic activity
same,incidence of breast cancer compared with controls,women [6],lower incidence
same,fewer uterine cancers than those assigned to tamoxifen,postmenopausal women; STAR trial,36%
same,reduction of risk for invasive breast cancer,"postmenopausal women; postmenopausal women, STAR trial interim analysis",approximately 50%
same,increased incidence of VTE,[7]; oral,2-4 times
same,plasma antithrombin levels,[7]; raloxifene use,significant reduction
same,tPA levels,[7]; raloxifene use,significant reduction
same,bioavailability at 3 wt %,in vitro,~1%
same,absolute bioavailability,[8],2%
same,absolute bioavailability,[8]; listed as raloxifene,approximately 2%
"O=C(c1ccc(OCCN2CCCCC2)cc1)c1c(-c2ccc(O)cc2)sc2cc(O)ccc12 [Raloxifene.HCl, raloxifene hydrochloride]",increase in AUC with increasing doses,[3]; doses ranging from 30 to 150 mg,slightly less than a proportional increase
same,"genotoxicity, unscheduled DNA synthesis assay",rat hepatocytes,not genotoxic
same,"genotoxicity, mouse lymphoma assay",mammalian cell mutation,not genotoxic
same,"genotoxicity, chromosomal aberration assay",[9],not genotoxic
same,"genotoxicity, in vivo sister chromatid exchange assay",Chinese hamsters,not genotoxic
same,"genotoxicity, in vivo micronucleus test",mice [10],not genotoxic
same,"genotoxicity, Ames test",bacterial mutagenesis,not genotoxic
